Like-named read-outs stand apart in the source and are kept apart here.
How the values were obtained:
[1] = for Patients requiring dose delay / Patients with dose reduction: irinotecan; for Patients requiring dose delay: cycles 1 and 2; for Patients with dose reduction: first two cycles
Protocol: Seven days before the start of cycle 1, a single day's dose of sunitinib was administered to allow for the collection of samples for pharmacokinetic analysis.
In addition, prophylactic use of hematopoietic growth factors to support neutrophil or platelet counts was not recommended in cycle 1, but could be used in subsequent cycles.
Patients underwent regular physical examinations (usually on day 1 of each treatment cycle), laboratory tests (blood, usually on days 1 and 15 of each cycle, and urinalysis) and 12-lead electrocardiogram (at screening, at steady state level of sunitinib on cycle 2 day 1, and as clinically indicated in subsequent cycles). […] Response Evaluation Criteria for Solid Tumors version 1.0 ([Therasse et al 2000]) was used, requiring repeat imaging studies ⩾4 weeks after the initial documentation of response.

[2] = Plasma pharmacokinetics of irinotecan and SN-38 in patients; conditions: for Tlast: median; for Tmax: median (range), n=18–20 paired
Protocol: (§1) In cycle 1, sunitinib administration started on day 2. Both agents were evaluated in combination on cycle 2 day 1; samples were drawn before drug administration and at 1, 1.5, 2, 4, 6, 8, 10, and 24 hours post-dose.
(§2) Pharmacokinetic parameter values were calculated for each subject by noncompartmental analysis of concentration–time data using WinNonlin version 4.1 (http://pharmacy.ucsf.edu/irc/pdfs/wul_users_guide.pdf). […] Summary descriptives of pharmacokinetic values were presented only for paired observations with respect to each analyte. In the case where the dose for one of the paired observations was different from the other observation, dose correction to the intended dose was performed (correction factor: intended dose/actual dose). Dose correction to the MTD was performed. Individual patient trough plasma concentrations were summarised per cycle and study day. All concentrations that were below the limits of quantitation (BLQ) were set to zero before computation of descriptive statistics (BLQ values were excluded from the calculations of geometric means and the associated 95% confidence intervals).
(§3) Standard plasma pharmacokinetic parameters were used including the maximum plasma concentration (Cmax), time to Cmax (Tmax), area under the plasma concentration–time curve to the time of the last measurable concentration (AUC0–last) or infinity (AUC0–∞), clearance, and terminal elimination half-life (t1/2).

[3] = Plasma pharmacokinetics of sunitinib, SU012662 and total drug in patients; conditions: human, in vivo
Protocol: Pharmacokinetic analysis was carried out in a central laboratory, and pharmacokinetic parameter values were estimated using noncompartmental methods. Human potassium EDTA plasma pharmacokinetic samples were analysed for sunitinib and SU012662 and total drug (sunitinib plus SU012662) concentrations at BASi (West Lafayette, IN, USA) with the use of a validated, sensitive, and specific liquid chromatographic-tandem mass spectrometric method.
as §1, §2, §3

[4] = C2D1/C1D1 (sunitinib+irinotecan relative to irinotecan alone), both cohorts combined

In the case of `CCc1c2c(nc3ccc(OC(=O)N4CCC(N5CCCCC5)CC4)cc13)-c1cc3c(c(=O)n1C2)COC(=O)[C@]3(O)CC` [Irinotecan, irinotecan], the “Maximum tolerated dose (MTD)” value ([1]; irinotecan day 1 of 21-day cycle, with sunitinib 25 mg per day days 1–14) was 250 mg m^−2, the “Patients requiring dose delay” value ([1]; cohort 1) was “four” and the “Patients with dose reduction” value ([1]; cohort 1) was “six”. For the same molecule, the “Patients requiring dose delay” value ([1]; cohort 2) was “one”, the “Patients with dose reduction” value ([1]; cohort 2) was “one” and the Tlast ([2]; Irinotecan alone C1D1) was 24.0 h. For the same molecule, the Tlast ([2]; Sunitinib+irinotecan C2D1) was 24.0 h, the “AUC0–last” value ([2]; human, in vivo) was 16.9 (33.3) μg h ml^−1 and the “AUC0–∞” value ([2]; human, in vivo) was 18.1 (34.0) μg h ml^−1. For the same molecule, the Cmax ([2]; human, in vivo, 250 mg) was 2900 ng/mL, the AUC(0-t) ([2]; human, in vivo, AUC0–last) was 14900 ng·h/mL and the AUC(0-inf) ([2]; human, in vivo, AUC0–∞) was 15900 ng·h/mL.

For `CCNCCNC(=O)c1c(C)[nH]c(/C=C2\C(=O)Nc3ccc(F)cc32)c1C` [SU012662], the “AUC0–last” value [3] was 53.2 (30.9) ng h ml^−1, the Cmax [3] was 3.6 (32.5) ng ml^−1 and the Tlast [3] was 24.0 h. The “AUC0–last” value ([3]; 25 mg) was 38.6 (54.4) ng h ml^−1 and the Cmax ([3]; 25 mg) was 2.4 (51.4) ng ml^−1.

For `CCc1c2c(nc3ccc(O)cc13)-c1cc3c(c(=O)n1C2)COC(=O)[C@]3(O)CC` [SN-38], the “Geometric mean ratio of AUC0–last” value [2, 4] was 1.20, the “Geometric mean ratio of Cmax” value [2, 4] was 1.13 and the “AUC0–last” value ([2]; Irinotecan alone C1D1, mean (CV%)) was 0.31 (61.7) μg h ml^−1. For the same molecule, the Cmax ([2]; Irinotecan alone C1D1, mean (CV%), dose corrected to 250 mg m^−2) was 0.03 (51.4) μg ml^−1, the Tlast ([2]; Irinotecan alone C1D1) was 24.0 h and the Tmax ([2]; Irinotecan alone C1D1) was 1.1 (1.0–4.2) h. For the same molecule, the “AUC0–last” value ([2]; Sunitinib+irinotecan C2D1, mean (CV%)) was 0.36 (52.8) μg h ml^−1, the Cmax ([2]; Sunitinib+irinotecan C2D1, mean (CV%), dose corrected to 250 mg m^−2) was 0.04 (50.0) μg ml^−1 and the Tlast ([2]; Sunitinib+irinotecan C2D1) was 24.0 h. The Tmax ([2]; Sunitinib+irinotecan C2D1) was 1.5 (0.9–4.1) h.

With `CCN(CC)CCNC(=O)c1c(C)[nH]c(/C=C2\C(=O)Nc3ccc(F)cc32)c1C` [Sunitinib, sunitinib] the “Maximum tolerated dose (MTD)” value ([1]; sunitinib days 1–14 of 21-day cycle, with irinotecan 250 mg m^−2 day 1) was 25 mg per day, the AUC(0-t) [3] was 226 ng·h/mL and the Cmax [3] was 13 ng/mL. The Tlast [3] was 24.0 h, the AUC(0-t) ([3]; 25 mg) was 266 ng·h/mL and the Cmax ([3]; 25 mg) was 16.3 ng/mL.

Source: publication PMC2965864 (British Journal of Cancer, 2010)
